One test concerns the target μ-opioid receptor. The note with it: read-out: μ-opioid receptor Ki; cited from earlier work.
A further test concerns the target human μ-opiate receptor (Homo sapiens, UniProt P35372). The test can be described thus: [35S]GTP-γ-S functional binding assay, CHO hMOR cells. The note with it: for Emax: read-out: μ-Agonism Emax %; for efficacy as μ-agonist (in words): [35S]GTP-γ-S functional assay. The format is biochemical. A general note: Binding of GTPγS marks nucleotide exchange on a G protein.

Another test has as its target δ-opiate receptor (Homo sapiens, UniProt P41143). In words: [3H]DADLE opioid receptor binding, transfected CHO cells. The note with it: relative to μ Ki.
The target of another test is κ-opiate receptor (Homo sapiens, UniProt P41145). In words: [3H]U69,593 opioid receptor binding, transfected CHO cells. The note with it: relative to μ Ki.

One may read the Ki as the equilibrium dissociation constant of an inhibitor or competing ligand from its target. In general, EC50 refers to the midpoint of the concentration-response curve. A low value points to higher potency in that assay. One may read the Emax as the size of the effect at its maximum, as opposed to the concentration needed.

human μ-opiate receptor, sequence (P35372 whole entry): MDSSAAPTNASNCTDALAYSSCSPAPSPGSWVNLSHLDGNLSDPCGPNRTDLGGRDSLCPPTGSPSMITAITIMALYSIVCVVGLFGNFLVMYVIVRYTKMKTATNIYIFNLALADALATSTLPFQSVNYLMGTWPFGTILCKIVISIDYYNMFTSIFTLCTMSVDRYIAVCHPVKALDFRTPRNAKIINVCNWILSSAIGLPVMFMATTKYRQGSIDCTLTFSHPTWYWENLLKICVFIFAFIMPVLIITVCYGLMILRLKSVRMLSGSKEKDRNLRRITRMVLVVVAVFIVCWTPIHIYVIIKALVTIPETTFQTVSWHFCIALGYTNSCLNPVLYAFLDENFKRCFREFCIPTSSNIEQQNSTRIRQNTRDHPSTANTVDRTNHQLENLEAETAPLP
δ-opiate receptor, sequence (P41143 whole entry): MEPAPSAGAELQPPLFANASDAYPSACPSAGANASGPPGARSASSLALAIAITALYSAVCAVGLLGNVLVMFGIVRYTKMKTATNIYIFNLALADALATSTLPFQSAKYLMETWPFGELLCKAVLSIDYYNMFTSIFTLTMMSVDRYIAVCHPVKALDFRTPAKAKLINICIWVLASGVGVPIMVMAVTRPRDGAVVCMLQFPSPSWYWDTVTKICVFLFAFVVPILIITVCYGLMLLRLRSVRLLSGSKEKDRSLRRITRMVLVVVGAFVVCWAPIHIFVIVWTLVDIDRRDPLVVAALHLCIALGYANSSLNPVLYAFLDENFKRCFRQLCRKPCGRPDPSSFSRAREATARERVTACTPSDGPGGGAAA
κ-opiate receptor, sequence (P41145 whole entry): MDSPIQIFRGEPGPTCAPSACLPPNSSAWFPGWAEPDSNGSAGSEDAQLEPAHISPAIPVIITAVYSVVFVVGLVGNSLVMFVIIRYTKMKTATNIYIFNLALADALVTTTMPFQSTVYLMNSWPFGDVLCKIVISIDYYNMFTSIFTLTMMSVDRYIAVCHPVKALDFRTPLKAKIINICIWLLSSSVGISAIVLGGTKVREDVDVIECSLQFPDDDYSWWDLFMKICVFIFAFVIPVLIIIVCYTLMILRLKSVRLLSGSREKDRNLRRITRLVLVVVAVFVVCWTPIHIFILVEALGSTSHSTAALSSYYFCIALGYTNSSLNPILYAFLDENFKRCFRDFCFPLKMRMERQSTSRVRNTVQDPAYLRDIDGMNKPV

Regarding `Oc1ccc2c(c1)[C@]13CCC[C@H](C1)NC[C@@H]3O2` (single isomer, unassigned) [para-d isomer, (3R*,6aS*11aR*)-1,3,4,5,6,11a-hexahydro-2H-3,6a-methanobenzofuro[2,3-c]azocin-8-ol], the Ki at μ-opioid receptor was 1220 nM.
With `CC[C@@]12CCNC[C@@H]1Oc1ccc(O)cc12` [Compound 20, 4aS,9aR-(−)-cis-4a-Ethyl-1,2,3,4,4a,9a-hexahydrobenzofuro[2,3-c]pyridin-6-ol], on human μ-opiate receptor, the EC50 came out at 150 ± 25 nM, the Kb came to 95 nM and the maximal effect (Emax) stood at 97 ± 4%.
Consider `CC[C@@]12CCN(C)C[C@@H]1Oc1ccc(O)cc12` [Compound 21, 4aS,9aR-(−)-cis-4a-Ethyl-2-methyl-1,2,3,4,4a,9a-hexahydrobenzofuro[2,3-c]pyridin-6-ol], for which, on human μ-opiate receptor, a half-maximal response (EC50) required 241 ± 47 nM, the “efficacy as μ-agonist (in words)” value was “little efficacy” and the Emax stood at 45 ± 2%.
Regarding `CC[C@@]12CCN(CCc3ccccc3)C[C@@H]1Oc1ccc(O)cc12` [Compound 22, 4aS,9aR-(−)-cis-4a-Ethyl-2-(2-phenylethyl)-1,2,3,4,4a,9a-hexahydrobenzofuro[2,3-c]pyridin-6-ol], the “fold less affinity at the δ-receptor than at the μ-receptor” value on δ-opiate receptor is “more than 100 fold”. Further, the “fold less affinity at the κ-receptor than at the μ-receptor” value on κ-opiate receptor is given as “more than 100 fold”. Also, at human μ-opiate receptor, the EC50 is 24 ± 6 nM, the “efficacy as μ-agonist (in words)” value is reported as “potent agonist” and the Emax was found to be 84 ± 4%.
For the compound `CC[C@@]12CCN(C[C@@H](O)c3ccccc3)C[C@@H]1Oc1ccc(O)cc12` [Compound 23, 4aS,9aR,2′S-(−)-cis-2-(2′-Hydroxy-2-phenylethyl)-4a-ethyl-1,2,3,4,4a,9a-hexahydrobenzofuro[2,3-c]pyridin-6-ol], on human μ-opiate receptor, the concentration giving a half-maximal response (EC50) turned out to be 560 ± 60 nM and the Emax is 100 ± 3%.
For `CC[C@@]12CCN(C[C@H](O)c3ccccc3)C[C@@H]1Oc1ccc(O)cc12` [Compound 24, 4aS,9aR,2′R-(−)-cis-2-(2′-Hydroxy-2-phenylethyl)-4a-ethyl-1,2,3,4,4a,9a-hexahydrobenzofuro[2,3-c]pyridin-6-ol], in that order: 480 ± 90 nM and 36 ± 2%.
